Measurements reported in PubChem BioAssay AID276 (DTP/NCI, 2004).
“And” between values parts separate entries of the source, which are not always exact repeats. Equal values may be shown once. Inconclusive results and toxic doses are left out. The calls were made as follows: active = survival T/C of 150% or more; inactive = T/C below 125% in these data. Residues, ends and D or L forms follow the SMILES beside them. *: point of attachment. Trt = c1ccc(C(c2ccccc2)(c2ccccc2)*)cc1; Cbz = O=C(OCc1ccccc1)*; Bn = c1ccc(C*)cc1; βAla = NCCC(=O)O

System: B6C3F1 mice, Lewis lung carcinoma iv, survival T/C
Experiment: NCI In Vivo Anticancer Drug Screen. Data for tumor model Lewis Lung Carcinoma (intravenous) in B6C3F1 mice
Conditions: endpoint: median survival time, schedule: Q01DX009 (ip), higher = longer survival
Summary of the method: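 Transplantable tumor in mice; compound treated vs vehicle controls; read-out survival; value = treated/control (T/C).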

[1] = dose: 12.5 mg/kg/injection, vehicle: saline
[2] = dose: 25.0 mg/kg/injection, vehicle: saline
[3] = dose: 6.25 mg/kg/injection, vehicle: saline with Tween-80
[4] = dose: 12.5 mg/kg/injection, vehicle: saline with Tween-80
[5] = dose: 25.0 mg/kg/injection, vehicle: saline with Tween-80
[6] = dose: 50.0 mg/kg/injection, vehicle: saline with Tween-80
[7] = dose: 100.0 mg/kg/injection, vehicle: saline with Tween-80
[8] = dose: 200.0 mg/kg/injection, vehicle: saline with Tween-80
[9] = dose: 50.0 mg/kg/injection, vehicle: saline
[10] = dose: 100.0 mg/kg/injection, vehicle: saline
[11] = dose: 200.0 mg/kg/injection, vehicle: saline
[12] = dose: 12.5 mg/kg/injection, vehicle: Klucel (hydroxypropylcellulose) (HPC)
[13] = dose: 50.0 mg/kg/injection, vehicle: Klucel (hydroxypropylcellulose) (HPC)
[14] = dose: 100.0 mg/kg/injection, vehicle: Klucel (hydroxypropylcellulose) (HPC)
[15] = dose: 200.0 mg/kg/injection, vehicle: Klucel (hydroxypropylcellulose) (HPC)

Measured: T/C

CCc1ncnc2cc(OCC3CO3)c(OC)cc12 (stereo unspecified)
inactive: dose: 3.13 mg/kg/injection, vehicle: saline 98 % of control | dose: 6.25 mg/kg/injection, vehicle: saline 100 % of control and 106 % of control | [1] 102 % of control and 104 % of control | [2] 117 % of control and 118 % of control

O=C(O[Si](Cc1ccccc1)(Cc1ccccc1)Cc1ccccc1)N(CCCl)CCCl
inactive: [3] 100 % of control | [4] 108 % of control | [5] 90 % of control and 100 % of control | [6] 103 % of control | [7] 108 % of control and 123 % of control | [8] 124 % of control

CC[C@H](CC[C@@H](C)C1CC[C@H]2[C@@H]3CC=C4C[C@@H](OP(=O)(N5CC5)N5CC5)CC[C@]4(C)[C@H]3CC[C@]12C)C(C)C (stereo partly specified)
inactive: [4] 100 % of control | [5] 95 % of control | [6] 97 % of control | [7] 100 % of control | [8] 95 % of control

CCCCCC1c2cc(O)ccc2OC1N1CCOCC1 (stereo unspecified)
inactive: dose: 6.0 mg/kg/injection, vehicle: saline with Tween-80 96 % of control | dose: 12.0 mg/kg/injection, vehicle: saline with Tween-80 104 % of control | [4] 97 % of control | [5] 91 % of control | [6] 103 % of control and 104 % of control | [7] 94 % of control and 96 % of control | [8] 90 % of control and 99 % of control

Cc1ccc2c(c1)N=C(Nc1ccccc1)N=S2(C)=O (stereo unspecified)
inactive: [3] 99 % of control | [4] 92 % of control | [5] 93 % of control | [6] 95 % of control | [7] 108 % of control | [8] 119 % of control

NC(Cn1ccc(=O)c(O)c1)C(=O)O (stereo unspecified)
inactive: [1] 94 % of control | [2] 98 % of control | [9] 102 % of control | [10] 94 % of control | [11] 94 % of control

C=Cc1cnc([N+](=O)[O-])n1C
inactive: [12] 94 % of control | dose: 25.0 mg/kg/injection, vehicle: Klucel (hydroxypropylcellulose) (HPC) 90 % of control | [13] 99 % of control | [14] 92 % of control | [15] 92 % of control

CCCCCC[Se][Se]CCCCCC
inactive: dose: 1.56 mg/kg/injection, vehicle: Klucel (hydroxypropylcellulose) (HPC) 97 % of control | dose: 3.12 mg/kg/injection, vehicle: Klucel (hydroxypropylcellulose) (HPC) 105 % of control | dose: 6.25 mg/kg/injection, vehicle: Klucel (hydroxypropylcellulose) (HPC) 100 % of control | [12] 95 % of control

[Cl][Pt+2][Cl].[NH-]CC1(C[NH-])CCC1
inactive: dose: 1.56 mg/kg/injection, vehicle: suspension in saline 96 % of control | dose: 3.12 mg/kg/injection, vehicle: suspension in saline 105 % of control

NC(=O)c1[nH]nc(C2OC(CO)C(O)C2O)c1O (stereo unspecified)
inactive: dose: 0.31 mg/kg/injection, vehicle: saline 91 % of control and 105 % of control | dose: 0.62 mg/kg/injection, vehicle: saline 98 % of control and 101 % of control | dose: 1.25 mg/kg/injection, vehicle: saline 120 % of control and 122 % of control | dose: 2.5 mg/kg/injection, vehicle: saline 122 % of control

CC(Oc1ccccc1-c1ccccc1)C(=O)N(C)C (stereo unspecified)
inactive: [4] 106 % of control | [5] 110 % of control | [6] 107 % of control | [7] 96 % of control | [8] 101 % of control | dose: 400.0 mg/kg/injection, vehicle: saline with Tween-80 100 % of control

[N-]=[N+]=CC(=O)CCC(=O)C=[N+]=[N-]
inactive: dose: 0.39 mg/kg/injection, vehicle: DMSO 92 % of control | dose: 0.78 mg/kg/injection, vehicle: DMSO 95 % of control | dose: 1.5 mg/kg/injection, vehicle: DMSO 121 % of control | dose: 3.0 mg/kg/injection, vehicle: DMSO 112 % of control | dose: 6.0 mg/kg/injection, vehicle: DMSO 115 % of control | dose: 25.0 mg/kg/injection, vehicle: DMSO 108 % of control

COc1cccc2c1C(=N)c1c(O)c3c(c(O)c1C2=O)C[C@@](O)(C(C)=O)C[C@@H]3OC1CC(N)C(O)C(C)O1 (stereo partly specified)
inactive: dose: 1.0 mg/kg/injection, vehicle: saline 103 % of control | dose: 2.0 mg/kg/injection, vehicle: saline 96 % of control | dose: 4.0 mg/kg/injection, vehicle: saline 105 % of control

CCN(CC)CCNc1ccc(C)c2sc3ccc(O)cc3c(=O)c12
inactive: [4] 95 % of control | [5] 105 % of control | [6] 102 % of control

CC[C@@]1(O)C(=O)OCc2c1cc1n(c2=O)Cc2cc3cc(O)ccc3nc2-1
inactive: dose: 0.18 mg/kg/injection, vehicle: saline 106 % of control | dose: 0.37 mg/kg/injection, vehicle: saline 104 % of control | dose: 0.75 mg/kg/injection, vehicle: saline 102 % of control | dose: 1.5 mg/kg/injection, vehicle: saline 103 % of control | dose: 3.0 mg/kg/injection, vehicle: saline 110 % of control

N=c1c(C(=O)OCc2ccccc2)ncc(CCl)n1O
inactive: [5] 96 % of control | [6] 97 % of control | [7] 109 % of control | [8] 92 % of control

CC1(C)OCC2OC=CC(=O)C2O1 (stereo unspecified)
inactive: [2] 98 % of control | [9] 98 % of control | [10] 105 % of control | [11] 102 % of control | dose: 400.0 mg/kg/injection, vehicle: saline 104 % of control

CCCCCn1c(C)cc(/C=C\c2ccc3cc(C)ccc3[n+]2C)c1C
inactive: dose: 37.5 micrograms/kg/injection, vehicle: Klucel (hydroxypropylcellulose) (HPC) 107 % of control | dose: 75.0 micrograms/kg/injection, vehicle: Klucel (hydroxypropylcellulose) (HPC) 109 % of control | dose: 150.0 micrograms/kg/injection, vehicle: Klucel (hydroxypropylcellulose) (HPC) 104 % of control | dose: 300.0 micrograms/kg/injection, vehicle: Klucel (hydroxypropylcellulose) (HPC) 97 % of control

COC(OC(CO)C(O)S(=O)(=O)O)C(O)S(=O)(=O)O (stereo unspecified)
inactive: [1] 109 % of control | [2] 106 % of control | [9] 97 % of control | [10] 102 % of control | [11] 98 % of control

NC(=S)N/N=C/c1ccc(OC(=O)COc2ccc(Cl)cc2)cn1
inactive: [4] 99 % of control and 100 % of control | [5] 92 % of control and 99 % of control | [6] 95 % of control and 101 % of control | [7] 92 % of control and 107 % of control | [8] 116 % of control

COC(=O)C(CSC(c1ccccc1)(c1ccccc1)c1ccccc1)NC(=O)C(CSCc1ccccc1)NC(=O)CCNC(=O)OCc1ccccc1 (stereo unspecified) ({Cbz-βAla}-Cys(Bn)-Cys(Trt)-OMe; configuration not given here)
inactive: [13] 93 % of control | [14] 98 % of control | [15] 97 % of control | dose: 400.0 mg/kg/injection, vehicle: Klucel (hydroxypropylcellulose) (HPC) 100 % of control | dose: 800.0 mg/kg/injection, vehicle: Klucel (hydroxypropylcellulose) (HPC) 98 % of control

O=NN(CCCl)C(=O)NC1CCC(CC2CCC(NC(=O)N(CCCl)N=O)CC2)CC1 (stereo unspecified)
active: [5] 190 % of control | [6] 165 % of control
